Assay results: patent US9579328B2, “Prostaglandin and vasoconstrictor pharmaceutical compositions and methods of use” (ALLERGAN, INC., priority 2012, dated 2017)
Read-outs that look alike come from different tables or passages of the source.

Experiments:
[1] = tested on: eyes of conscious Beagle dogs; conditions: bimatoprost 0.1%, latanoprost 0.005%, cited from earlier work
[2] = tested on: conjunctiva of patients with primary open-angle glaucoma; conditions: cited from earlier work
[3] = tested on: human cultured conjunctiva-derived epithelial cells; conditions: cited from earlier work
[4] = tested on: palpebral conjunctiva of New Zealand White (albino) rabbits; conditions: left eye, n = 16, cited from earlier work
[5] = tested on: bulbar conjunctiva of patients; conditions: bimatoprost 0.03% q.d. for 60 days; biopsies at day 7 and impression cytology; cited from earlier work
conjunctiva of patients = assay: Phase 3 clinical studies, bimatoprost 0.03%/timolol 0.5% Combination versus bimatoprost monotherapy: conjunctival hyperaemia; type: in vivo, human
Text: Approximately 60% of patients being treated for glaucoma require two or more agents (adjuvant therapy) to control the intraocular pressure. For this reason, combination therapies, in which two pharmaceutically active agents are combined in the same formulation, have been developed to decrease complexity in the treatment regimen, improve patient compliance, and to minimize the exposure to excipients with possible toxicity such as benzalkonium chloride. Currently, the most commonly prescribed adjuvant therapy includes a beta-blocker and a prostaglandin analogue. For this reason, Allergan has formulated bimatoprost 0.03% together with timolol 0.5% (Combination).

[6] = tested on: conjunctiva of patients with bilateral open-angle glaucoma or ocular hypertension; conditions: bimatoprost 0.03% once daily, cited from earlier work
[7] = tested on: lower palpebral conjunctiva of rabbits, dogs, and non-human primates; conditions: cited from earlier work
[8] = non-human primate, after single or multiple topical bimatoprost dosing; cited from earlier work
[9] = tested on: palpebral conjunctiva of Dutch-Belted (pigmented) rabbits; design: key: N = Tissues within normal histological limits; conditions: left eye, n = 20, cited from earlier work
[10] = Bimatoprost 0.001% q.i.d. one month
[11] = Bimatoprost 0.01% q.i.d. one month
[12] = Bimatoprost 0.1% q.i.d. one month
[13] = Pooled 192024-018T & 021T (3 months), first line
[14] = Pooled 192024-018T & 021T (3 months), second line
[15] = Bimatoprost 0.03% b.i.d. 6 months
[16] = Bimatoprost 0.03% q.d. 6 months
[17] = Bimatoprost 0.1% b.i.d. 6 months

Q: Which “ocular surface hyperemic response (severity)” value ([1]; D-NAME treated control eyes, scale 0=none, 0.5=trace, 1=mild, 2=moderate, 3=severe) does the source give for `CCNC(=O)CCC/C=C\C[C@@H]1[C@@H](/C=C/[C@@H](O)CCc2ccccc2)[C@H](O)C[C@@H]1O` [Bimatoprost, bimatoprost] here?
A: The value was “trace to mild”.

Q: And the “effect of L-NAME on elicited ocular surface hyperemia” value ([1]; L-NAME 1% treated eyes, PGE2 0.01%, 0-6 h)?
A: Its value is “blocked”.

Q: What about the “eyes with signs of inflammatory cell margination or infiltration” value ([2]; bimatoprost 0.03% q.d. 2 to 4 weeks, eyes with hyperemia (2/9)) of the same compound?
A: The value was 22%.

Q: What about the “eyes with vascular congestion” value ([2]; bimatoprost 0.03% q.d. 2 to 4 weeks, eyes with hyperemia (7/9)) of the same compound?
A: Its value is 78%.

Q: What about the “eyes that developed conjunctival hyperemia” value ([2]; bimatoprost 0.03% q.d. for 2 to 4 weeks) of the same compound?
A: Its value is “Nine of 13”.

Q: And the “direct stimulation of inflammatory pathways involving adhesion molecules or class II antigens” value ([3]; in vitro)?
A: The value was “None of the drugs appeared to induce direct stimulation of inflammatory pathways”.

Q: And the toxicity observed ([3]; primarily related to the concentration of benzalkonium chloride)?
A: The toxicity observed was “mild”.

Q: What about the “Incidence of minimal-to-mild mononuclear cell infiltration in palpebral conjunctiva, Lower Eyelid” value (shortened to “Incidence … Lower Eyelid”) [4, 10] of the same compound?
A: The value was 12 number of animals.

Q: And the “Incidence of minimal-to-mild mononuclear cell infiltration in palpebral conjunctiva, Upper Eyelid” value (“Incidence … Upper Eyelid” below) [4, 10]?
A: Its value is 4 number of animals.

Q: And the “Incidence … Lower Eyelid” value [4, 11]?
A: Its value is 13 number of animals.

Q: And the “Incidence … Upper Eyelid” value [4, 11]?
A: The value was 6 number of animals.

Q: And the “Incidence … Lower Eyelid” value [4, 12]?
A: The value was 14 number of animals.

Q: And the “Incidence … Upper Eyelid” value [4, 12]?
A: Its value is 8 number of animals.

Q: And the evidence of inflammation [5]?
A: Its evidence of inflammation is “no evidence of inflammation”.

Q: And the “Incidence of Conjunctival hyperaemia Detected on Biomicroscopy, Biomicro ≧ +1” value (from here on “Incidence … Biomicro ≧ +1”) (conjunctiva of patients; 192024-026T (3 weeks))?
A: The value was 18.9%.

Q: What about the “Incidence of Conjunctival hyperaemia Reported as a Treatment-Related AE (Rx-rel AE)” value (“Incidence … (Rx-rel AE)” for short) (conjunctiva of patients; 192024-026T (3 weeks)) of the same compound?
A: The value was 27.8%.

Q: And the “Incidence … Biomicro ≧ +1” value (conjunctiva of patients; 192024-504T (3 months))?
A: The value was 21.1%.

Q: And the “Incidence … (Rx-rel AE)” value (conjunctiva of patients; 192024-504T (3 months))?
A: Its value is 29.9%.

Q: What about the “Incidence … Biomicro ≧ +1” value (conjunctiva of patients; [13]) of the same compound?
A: Its value is 30.9%.

Q: And the “Incidence … (Rx-rel AE)” value (conjunctiva of patients; [13])?
A: Its value is 38.5%.

Q: And the “Incidence … Biomicro ≧ +1” value (conjunctiva of patients; [14])?
A: The value was 41.5%.

Q: And the “Incidence … (Rx-rel AE)” value (conjunctiva of patients; [14])?
A: Its value is 43.4%.

Q: And the “time at which frequency and severity of hyperemia peaked after the first instillation” value ([6]; 39 patients, slit-lamp biomicroscopy)?
A: Its value is “approximately 1 day”.

Q: What about the “hyperemia returning to near baseline levels” value ([6]; month-long study) of the same compound?
A: Its value is ≤ 28 days.

Q: And the “clinical significance of the hyperemia” value [6]?
A: Its value is “not clinically significant”.

Q: And the “Incidence of inflammatory infiltrates above background, lower palpebral conjunctiva: number of animals with histopathologic findings (per total number of animals)” value ([7]; Dogs, Beagle, 1 month, 0.1% q.i.d. topical)?
A: Its value is 0 (6).

Q: What about the “Incidence of inflammatory infiltrates above background, lower palpebral conjunctiva: number of animals with histopathologic findings (per total number of animals)” value ([7]; Monkeys, Cynomolgus, 12 months, 0.1% b.i.d. topical) of the same compound?
A: The value was 0 (60).

Q: And the “Incidence of inflammatory infiltrates above background, lower palpebral conjunctiva: number of animals with histopathologic findings (per total number of animals)” value ([7]; Rabbits, Dutch-Belted, 1 month, 0.03% b.i.d. topical)?
A: Its value is 0 (19).

Q: What about the “Incidence of inflammatory infiltrates above background, lower palpebral conjunctiva: number of animals with histopathologic findings (per total number of animals)” value ([7]; Rabbits, Dutch-Belted, 6 months, 0.1% b.i.d. topical) of the same compound?
A: The value was 1 (20).

Q: And the “Incidence of inflammatory infiltrates above background, lower palpebral conjunctiva: number of animals with histopathologic findings (per total number of animals)” value ([7]; Rabbits, New Zealand White, 1 month, 0.1% q.i.d. topical)?
A: The value was 0 (16).

Q: What about the “compound-related findings in eyes of the animal species” value ([7]; multiple subclinical, clinical, and exaggerated doses) of the same compound?
A: The value was “No compound-related findings of corneal toxicity, discomfort or irritation, or histopathological changes”.

Q: And the “in-life evaluations: treatment-related ocular surface inflammation” value ([7]; periods of up to one year exposure)?
A: The value was “no treatment-related ocular surface inflammation”.

Q: What about the “concentrations found in ocular surface tissues” value [8] of the same compound?
A: The value was 10^−6-10^−5 molar equivalent.

Q: And the “Mononuclear cell infiltration in palpebral conjunctiva, Lower Eyelid” value [9, 15]?
A: The value was “N”.

Q: What about the “Mononuclear cell infiltration in palpebral conjunctiva, Upper Eyelid” value [9, 15] of the same compound?
A: The value was “N”.

Q: And the “Mononuclear cell infiltration in palpebral conjunctiva, Lower Eyelid” value [9, 16]?
A: The value was “N”.

Q: And the “Mononuclear cell infiltration in palpebral conjunctiva, Upper Eyelid” value [9, 16]?
A: The value was “N”.

Q: And the “Mononuclear cell infiltration in palpebral conjunctiva, Lower Eyelid” value [9, 17]?
A: Its value is “N”.

Q: And the “Mononuclear cell infiltration in palpebral conjunctiva, Upper Eyelid” value [9, 17]?
A: The value was “N”.
